Measurements as given in the supplement of paper PMC10307832.

Assays:
Experiment in all cases: relative viability (nuclei count vs DMSO), 5 days (fraction); higher = more cells survive
[1] = compound: NC(=O)c1ccc(N(C(N)=O)c2c(F)cccc2F)nc1-c1ccc(F)cc1F [VX-702] + Cc1nc(Nc2ncc(C(=O)Nc3c(C)cccc3Cl)s2)cc(N2CCN(CCO)CC2)n1 [Dasatinib] (partner 0.075 µM)
How it was run: (§1)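 Lung cancer cell lines in 1536-well plates got either a single drug or a fixed anchor-drug dose together with five library-drug doses (not always all listed) in √10 steps, by pin tool, on the day after seeding. Nuclei were counted after 5 days, and relative viability is the treated-to-vehicle ratio of nuclei counts. Values are medians of duplicate plates.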

[2] = compound: CC(C)(C)c1nc(-c2cccc(NS(=O)(=O)c3c(F)cccc3F)c2F)c(-c2ccnc(N)n2)s1 [Dabrafenib] + O=C(c1cc(Cc2n[nH]c(=O)c3ccccc23)ccc1F)N1CCN(C(=O)C2CC2)CC1 [Olaparib] (partner 8 µM)
How it was run: as §1

[3] = compound: CC(C)(C)c1nc(-c2cccc(NS(=O)(=O)c3c(F)cccc3F)c2F)c(-c2ccnc(N)n2)s1 [Dabrafenib] + CS(=O)(=O)N1CCN(Cc2cc3nc(-c4cccc5[nH]ncc45)nc(N4CCOCC4)c3s2)CC1 [Pictilisib] (partner 1 µM)
How it was run: as §1

[4] = compound: CC(C)(C)c1nc(-c2cccc(NS(=O)(=O)c3c(F)cccc3F)c2F)c(-c2ccnc(N)n2)s1 [Dabrafenib] + CC(C)C[C@H](NC(=O)[C@H](Cc1ccccc1)NC(=O)c1cnccn1)B(O)O [Bortezomib] (partner 0.002 µM)
How it was run: as §1

Cell Line	relative viability ([1]; first compound 0.02 µM)	relative viability ([1]; first compound 0.2 µM)	relative viability ([1]; first compound 0.6325 µM)	relative viability ([1]; first compound 2 µM)	relative viability ([2]; first compound 0.003 µM)	relative viability ([2]; first compound 0.009487 µM)	relative viability ([2]; first compound 0.03 µM)	relative viability ([2]; first compound 0.09487 µM)	relative viability ([2]; first compound 0.3 µM)	relative viability ([3]; first compound 0.003 µM)	relative viability ([3]; first compound 0.009487 µM)	relative viability ([3]; first compound 0.03 µM)	relative viability ([3]; first compound 0.09487 µM)	relative viability ([3]; first compound 0.3 µM)	relative viability ([4]; first compound 0.003 µM)	relative viability ([4]; first compound 0.009487 µM)	relative viability ([4]; first compound 0.03 µM)	relative viability ([4]; first compound 0.09487 µM)	relative viability ([4]; first compound 0.3 µM)
201T	0.578	0.542	0.587	0.576	0.87	0.836	0.762	0.811	0.841	0.665	0.711	0.607	0.65	0.71	1.08	1.07	1.06	1.11	1.1
A549						0.34	0.293	0.112	0.317	0.497	0.487	0.519	0.544	0.64					
A-427	0.689	0.698	0.796	0.584	0.704	0.685	0.707	0.658	0.726		0.611	0.769	0.522	0.675		0.969	0.939	0.821	0.987
ABC-1	0.666	0.535	0.573	0.562		0.707	0.953	0.849	1.26		0.86	0.823	0.778	0.822		0.292	0.265	0.31	0.288
BEN	0.337	0.255	0.317	0.304		1.24		1.02	1.18		0.58		0.52	0.687		0.936		0.696	0.996
CAL-12T	0.409	0.539	0.273	0.463	0.657	0.685	0.671	0.574	0.76	0.319	0.392	0.395	0.57	0.535	0.623	1.18	1.06	1.12	1.08
COR-L23	0.523	0.475	0.559	0.673	0.394	0.291	0.312	0.325	0.324	0.8	0.888	0.704	0.632	0.647	1.06	1.15	0.91	0.898	0.915
COR-L 105	0.315	0.402	0.313	0.3	0.685	0.793	0.702	0.599	0.799	0.297	0.435	0.353	0.454	0.474	0.721	0.843	0.69	0.738	0.895
Calu-6					0.569	0.556	0.482	0.303	0.481	0.968	0.913	0.867	0.715	0.694	1.07	1.03	0.844	0.712	0.824
ChaGo-K-1	0.769	0.584	0.622	0.614	0.458	0.413	0.404	0.312	0.455		0.591	0.749	0.721	0.933		0.816	1.01	0.983	1.11
EBC-1					0.686	0.691	0.664	0.39	0.474	0.397	0.37	0.272	0.184	0.227	0.602	0.644	0.477	0.411	0.353
EKVX	0.62	0.491	0.527	0.436		0.763	0.766	0.641	0.966	0.413	0.458	0.38	0.495	0.59	0.77	1.1	0.969	0.891	1.12
EMC-BAC-2	0.182	0.331	0.332	0.275		0.444	0.433	0.336	0.388	0.52	0.434	0.389	0.585	0.623	1.04	1.11	1.03	0.936	1.06
EPLC-272H	0.359	0.332	0.362	0.377	0.784	0.931	0.717	0.749	0.964		0.212	0.288	0.414	0.369		0.945	0.954	0.631	1.18
H3255	0.312	0.301	0.44	0.409	0.632	0.568	0.626	0.573	0.595	0.394	0.566	0.43	0.405	0.462	0.703	0.858	0.997	0.642	1.09
HARA	0.224	0.268	0.36	0.329		0.971	0.799	0.647	1.12	0.327	0.629	0.325	0.399	0.605	1.17	1.16	1	1.06	1.27
HCC-15	0.667	0.501	0.602	0.639	0.716	0.673	0.743	0.578	0.63	0.595	0.851	0.654	0.797	0.725	1.06	0.971	0.997	0.891	0.814
HCC-44					0.952	1.03	1.08	1	0.956	0.555	0.67	0.499	0.704	0.699	0.884	0.854	0.935	0.853	0.964
HCC-78	0.449	0.338	0.351	0.356		0.847	0.733	0.452	0.915		0.235	0.192	0.276	0.219		0.655	0.543	0.4	0.513
